These results are taken from patent publication US11912645B2, “Lipopeptide compounds for the treatment of pain disorders” (INSERM (Institut National de la Santé et de la Recherche …, priority 2017, dated 2024).

Data set [1] concerns mouse dorsal root ganglia (DRG) neurons. The data set is described as follows: Calcium mobilization in primary DRG sensory neurons, basal (unstimulated). Format: cell-based. To be noted: 10 μM. As for the experimental part:
(§1) Male C57B16 mice (6-8 weeks) were used to produce primary cultures of dorsal root ganglia (DRG) sensory neurons for calcium flux experiments, and to perform studies of colorectal distention and intestinal isotonic contraction. All procedures were approved by Institutional Animal Care Committees (CEEA 122).
To determine whether C12-Asn-GABA or C12-Asn-BABA is capable of signaling to sensory nerves, calcium mobilization studies were performed on primary cultures of mouse dorsal root ganglia (DRG) neurons. […] The same experiments were thereafter performed in neurons activated by either an agonist of the receptor calcium channel TRPV1 (capsaicin) or by a mix of agonists (histamine, serotonin and bradykinin) for G protein coupled receptors (GPCR) implicated in visceral hypersensitivity. Exposure of neurons to either capsaicin (125 nM) or the mix of GPCR agonists (histamine, bradykinin, serotonin, 10 μM each) induced an increase in calcium flux as shown by the higher % of responding neurons and amplitude of the response (ΔF/F) compared to the vehicle (FIG. 4A, 4B). […] To investigate whether the inhibitory effect of C12-Asn-GABA was associated to the GABA residue, neurons were treated with saclofen (10, 50, and 100 μM), a competitive antagonist of the GABAB receptor. […]
(A change in cytosolic calcium serves as a functional read-out for many receptors and channels.)

In data set [2] the test system is DSS-induced visceral hypersensitivity. The data set is described as follows: DSS-induced colitis visceral hypersensitivity, visceromotor response to colorectal distension. To be noted: DSS 3% 5 days; 100 μL intracolonic 10 μM at day 5; CRD 15-60 mm Hg. In kind it is in vivo, mouse. As for the experimental part: FIG. 9: C12-Asn-GABA Inhibits DSS-induced visceral hypersensitivity. Mice received DSS 3% in their drinking water for 5 days to induce colitis. At day 5, mice were intracolonically administrated with C12-Asn-GABA (10 μM; black circles) or vehicle (40% ethanol; white circles). Thirty minutes after intracolonic administration, visceromotor response (VMR) to increasing pressures of colorectal distension was performed. Data are expressed as mean±SEM, n=5 mice per group.
The analgesic properties of the C12-Asn-GABA was assessed in a mouse colitis model. Dextran sulfate sodium (DSS) at 3% during 5 days was added in the drinking water in order to induce colitis.

The test system of data set [3] is mouse sensory neurons activated by capsaicin. As to the kind of experiment: Calcium flux in sensory neurons activated by capsaicin (TRPV1 agonist). In kind it is cell-based. To be noted: capsaicin 125 nM; pretreatment with increasing amounts of compound. As for the experimental part:
FIG. 4: C12-Asn-GABA inhibits neuronal activation via the GABA B receptor. Amplitude of intracellular calcium mobilization (ΔF/F; right panel) in mouse sensory neurons and percentage of responding neurons (left panel) pretreated with increasing amounts of C12-Asn-GABA (black circle) or vehicle (HBSS; white circle) and treated with capsaicin (125 nM; A) or a mix of G protein coupled receptor agonists (histamine, serotonin and bradykinin 10 μM each; B). Data are represented as mean±SEM; n=4 independent experiments of 3 wells per condition and 30-80 neurons per well. […] Percentage of responding neurons pretreated with increasing amounts of saclofen (black circle) or vehicle (HBSS; white circle) and treated with C12-Asn-GABA (10 μM) and capsaicin (125 nM; C) or a mix of G protein coupled receptor agonist (histamine, serotonin and bradykinin 10 μM each; D). Data are represented as mean±SEM; n=4 independent experiments of 3 wells per condition and 30-80 neurons per well.
FIG. 7: C14-Asn-GABA inhibits neuronal activation by capsaicin. Amplitude of intracellular calcium mobilization (F/F; A) in mouse sensory neurons and percentage of responding neurons (B) pretreated with 10 μM of C14-Asn-GABA (black bar) or vehicle (HBSS; white bar) and treated with capsaicin (125 nM). Data are represented as mean±SEM; n=3 independent experiments of 3 wells per condition and 35-82 neurons per well.
as §1
To determine whether C12-Asn-GABA or C12-Asn-BABA is capable of signaling to sensory nerves, calcium mobilization studies were performed on primary cultures of mouse dorsal root ganglia (DRG) neurons. […]

The nature of data set [4]: Colon and blood levels after intracolonic administration (LC-MS/MS). Format: in vivo, mouse. To be noted: intracolonic 10 μM; 30 minutes or 4 hours; vs vehicle. As for the experimental part:
FIG. 6: C12-Asn-GABA inhibits capsaicin-induced visceral hypersensitivity without altering Intestinal contraction. Mice received intracolonic administration of C12-Asn-GABA (10 μM; black symbols) or vehicle (40% ethanol; white symbols) and 30 minutes or 4 hours later colon (A) and blood (B) were harvested in order to quantify C12-Asn-GABA by LC-MS/MS. Data are expressed as mean±SEM, n=8 mice per group. […] Mice received intracolonic administration of C12-Asn-GABA (10 μM; black symbols) or vehicle (40% ethanol; white symbols) and 30 minutes or 4 hours later an intracolonic administration of capsaicin (100 μg/mouse; square) or its vehicle (40% ethanol; circle). Fifteen minutes after capsaicin or vehicle treatment, visceromotor response (VMR) to increasing pressures of colorectal distension was performed. Data are expressed as mean±SEM, n=7-8 mice per group. […] Ex vivo measurement of duodenal mechanical contraction frequency (B) and amplitude (C) in response to Krebs-Ringer solution (control; white bar), to DMSO 0.2% (vehicle; gray bar) or to C12-Asn-GABA (10 μM; black bar). Data are expressed as mean±SEM, n=5-6 per group. […]
In a first set of experiment, we assessed the ability of the C12-Asn-GABA to cross the epithelial barrier, in vivo. […] The impact of C12-Asn-GABA on visceral hypersensitivity was assessed by measuring the visceromotor responses (VMR) to colorectal distension (CRD). […]

The structures appear in SMILES notation.

For the compound `CCCCCCCCCCCC(=O)NC(CC(N)=O)C(=O)NCCCC(=O)O` (centres unmarked) [C12-Asn-GABA, C11 C(O)-Asn-gamma-aminobutyric acid], the “calcium mobilization under basal (unstimulated) conditions” value in data set [1] is reported as “does not induce calcium mobilization”. Also, the “DSS-induced increase in VMR to CRD” value in data set [2] is listed as “significantly decreased for all distension pressures”. In addition, in data set [3], the “calcium flux increase induced by capsaicin (% responding neurons, amplitude ΔF/F)” value is reported as “prevented by C12-Asn-GABA pretreatment in a dose-dependent manner”. Further, in data set [4], the “concentration in the blood” value is on record as “increased the concentration” and the “concentration in the colonic tissue” value is recorded as “increased the concentration”.
